Experimental data published in patent US20060069132A1, “Azolecarboxamide herbicides” (priority 2004, published 2006).

Legend:
bermudagrass = assay: Test C pre-/postemergence herbicide test; assay type: in vivo, Cynodon dactylon; details: for Bermudagrass plant response rating: 500 g ai/ha
Method in brief: (§1)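 Visual ratings on a 0–100 scale (100 = complete control) made versus untreated controls after 12 to 14 greenhouse days. Test chemicals, formulated in surfactant-containing non-phytotoxic solvent, applied preemergence to planted seeds or postemergence to 1- to 4-leaf plants (2 to 18 cm).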

[1] = test system: smallflower umbrella sedge; assay: Test C flooded paddy test; assay type: in vivo, Cyperus difformis; details: for Plant response rating, Sedge, Umbrella: 500 g ai/ha, visual rating after 12 to 14 days
morningglory [2] = assay: Test C pre-/postemergence herbicide test; assay type: in vivo, Ipomoea coccinea; design: key to Plant response rating, Morningglory: 0 = no effect, 100 = complete control
Method in brief: as §1

morningglory [3] = assay: Test B pre-/postemergence herbicide test; assay type: in vivo, Ipomoea coccinea; details: for Plant response rating, Morningglory / Morningglory plant response rating (0 to 100 scale): preemergence; for Morningglory plant response rating: postemergence
Method in brief: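 Species tested were Echinochloa crus-galli, Ipomoea coccinea, Xanthium strumarium and Oryza sativa, treated both before emergence and at the 1- to 4-leaf stage; rice and barnyardgrass were also tested under flooding at 2 leaves. Greenhouse incubation lasted 13–15 days before visual 0–100 scoring.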

velvetleaf = assay: Test A pre-/postemergence herbicide test; assay type: in vivo, Abutilon theophrasti
Method in brief: (§2)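 Visual injury scores on a 0–100 scale (100 = complete control) taken about ten days post-treatment in greenhouse against untreated controls; dash means no result. Treatments: preemergence soil spray and postemergence spray to runoff on one- to two-leaf plants 2 to 10 cm tall, surfactant-containing formulation.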

barnyardgrass = assay: Test B flooded paddy test; assay type: in vivo, Echinochloa crus-galli; details: 1000 g ai/ha, scale 0 to 100 (0 no effect, 100 complete control)
Method in brief: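 Plants grow to 1- to 4-leaf stage (2–18 cm) for postemergence spraying, or to 2-leaf stage for the paddy test. Formulated compound is applied. Greenhouse holding lasts 13–15 days. Response is scored visually relative to controls, 0 no effect to 100 complete control; a dash means no result.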

rice = assay: Test B pre-/postemergence herbicide test; assay type: in vivo, Oryza sativa; details: preemergence
Method in brief: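 Visual rating, 0 (no effect) to 100 (complete control), versus untreated controls after 13–15 d in greenhouse. Pre- and postemergence applications (postemergence plants 2–18 cm, 1–4 leaves); flooded paddy arm at 2-leaf stage. Compounds in non-phytotoxic solvent plus surfactant.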

large crabgrass = assay: Test A pre-/postemergence herbicide test; assay type: in vivo, Digitaria sanguinalis
Method in brief: as §2

[4] = 125 g ai/ha, scale 0 (no effect) to 100 (complete control), visual, 12 to 14 days, preemergence
[5] = 250 g ai/ha, scale 0 to 100 (0 no effect, 100 complete control), visual, 12 to 14 days, preemergence
[6] = Postemergence, 250 g ai/ha, scale 0 to 100, 0 no effect, 100 complete control
[7] = Preemergence, scale 0 to 100, 0 no effect, 100 complete control
[8] = 62 g ai/ha, scale 0 to 100 (0 no effect, 100 complete control)
[9] = 125 g ai/ha, scale 0 to 100 (0 no effect, 100 complete control)
[10] = 250 g ai/ha, scale of 0 to 100, 0 is no effect, 100 is complete control
[11] = scale 0 to 100 (0 no effect, 100 complete control)
[12] = Postemergence, 500 g ai/ha, scale 0 to 100
[13] = Preemergence, 500 g ai/ha, scale 0 to 100, 0 no effect, 100 complete control
[14] = postemergence, 125 g ai/ha, scale 0 to 100
[15] = postemergence, 62 g ai/ha, scale 0 to 100
[16] = 500 g ai/ha, visual rating 0-100, 0 no effect, 100 complete control
[17] = 125 g ai/ha, visual rating, scale 0 (no effect) to 100 (complete control)
[18] = 500 g ai/ha, visual rating, scale 0 (no effect) to 100 (complete control)
[19] = 125 g ai/ha, 0 to 100 scale, 0 is no effect, 100 is complete control
[20] = Postemergence, 500 g ai/ha, 0 to 100 scale, 0 no effect, 100 complete control
[21] = Postemergence, 2000 g ai/ha, 0 to 100 scale, 0 no effect, 100 complete control
[22] = Preemergence, 2000 g ai/ha, visual rating, 0 to 100 scale (0 no effect, 100 complete control)
[23] = preemergence, 500 g ai/ha, visual injury, 0 to 100 scale (0 no effect, 100 complete control)
[24] = 250 g ai/ha, scale 0-100, preemergence
[25] = 125 g ai/ha, 0 = no effect, 100 = complete control
[26] = 500 g ai/ha, visual rating, 0 = no effect, 100 = complete control
[27] = Postemergence, 250 g ai/ha, 0 to 100 scale, 0 no effect, 100 complete control
[28] = Postemergence, 1000 g ai/ha, 0 to 100 scale, 0 no effect, 100 complete control
[29] = Preemergence, 1000 g ai/ha, visual rating, 0 to 100 scale (0 no effect, 100 complete control)
[30] = preemergence, 250 g ai/ha, visual injury, 0 to 100 scale (0 no effect, 100 complete control)

| SMILES | Plant response rating (0 = no effect, 100 = complete control), Bermudagrass (bermudagrass; 62 g ai/ha, preemergence) | Plant response rating, Bermudagrass (bermudagrass; [4]) | Plant response rating, Bermudagrass (bermudagrass; [5]) | Plant response rating, Bermudagrass (bermudagrass; [6]) | Bermudagrass plant response rating (bermudagrass; [7]) | Sedge, Umbrella plant response rating [1, 8] | Sedge, Umbrella plant response rating [1, 9] | Sedge, Umbrella plant response rating [1, 10] | Plant response rating, Sedge, Umbrella [1, 11] | Plant response rating, Morningglory (morningglory [2]; [4]) | Morningglory plant response rating (morningglory [3]; [17]) | Morningglory plant response rating (morningglory [3]; [18]) | Velvetleaf plant response rating (velvetleaf; [20]) | Plant response rating, Velvetleaf (velvetleaf; [21]) | Velvetleaf plant response rating (velvetleaf; [22]) | Velvetleaf plant response rating (velvetleaf; [23]) | Barnyardgrass plant response rating (barnyardgrass; visual rating, 13 to 15 days) | Crabgrass, Large plant response rating (large crabgrass; [20]) | Plant response rating, Crabgrass, Large (large crabgrass; [21]) | Crabgrass, Large plant response rating (large crabgrass; [22]) | also measured |
| --- | --- | --- | --- | --- | --- | --- | --- | --- | --- | --- | --- | --- | --- | --- | --- | --- | --- | --- | --- | --- | --- |
| CCn1nc(C(C)(C)C)cc1C(=O)Nc1cccc(C(=O)NC2CC2)n1 [Compound 146] | 10 | 60 | 70 | 0 | 90 | 60 | 80 | 90 | 90 | 5 | 0 | 20 | 20 | 35 | 25 | 20 | 60 | 15 | 55 | 80 | Plant response rating (0 = no effect, 100 = complete control), Morningglory (morningglory [2]; 62 g ai/ha, preemergence): 0; Morningglory plant response rating (morningglory [2]; [12]): 0; Plant response rating, Morningglory (morningglory [2]; [6]): 0; Morningglory plant response rating (morningglory [2]; [13]): 50; Plant response rating, Morningglory (morningglory [2]; [14]): 0; Plant response rating, Morningglory (morningglory [2]; [15]): 0; Plant response rating, Morningglory (morningglory [3]; [16]): 10; Plant response rating, Morningglory (morningglory [3]; [19]): 0; Plant response rating, Rice (rice; [16]): 40; Plant response rating, Rice (rice; [19]): 10; Crabgrass, Large plant response rating (large crabgrass; Preemergence, 500 g ai/ha, visual rating, 0 to 100 scale (0 no effect, 100 complete control)): 70 |
| CCc1nc(C(C)(C)C)sc1C(=O)Nc1cccc(C(=O)NCC2CC2)n1 [Compound 215] |  | 70 |  |  | 100 | 40 | 40 | 70 | 90 | 0 | 0 | 40 | 30 | 30 | 30 | 15 | 30 | 20 | 30 | 55 | Plant response rating, Bermudagrass (bermudagrass; 62 g ai/ha, preemergence, scale 0 to 100, 0 no effect, 100 complete control): 40; Plant response rating, Bermudagrass (bermudagrass; [24]): 85; Plant response rating, Morningglory (morningglory [2]; 62 g ai/ha, preemergence, scale 0 to 100): 0; Plant response rating, Morningglory (morningglory [2]; [24]): 0; Plant response rating, Morningglory (morningglory [2]; 500 g ai/ha, scale 0 to 100 (0 no effect, 100 complete control), visual, 12 to 14 days, preemergence): 40; Morningglory plant response rating (0 to 100 scale) (morningglory [3]; [25]): 10; Plant response rating, Morningglory (morningglory [3]; [26]): 20; Rice plant response rating (0 to 100 scale) (rice; [25]): 0; Plant response rating, Rice (rice; [26]): 0; Crabgrass, Large plant response rating (large crabgrass; [23]): 30 |
| CCn1nc(C(C)(C)C)cc1C(=O)Nc1cccc(OC(F)(F)F)c1 [Compound 272] |  |  |  | 100 |  |  | 65 | 75 | 75 |  | 90 |  | 100 | 100 | 60 | 15 |  | 55 | 90 | 100 | Bermudagrass plant response rating (bermudagrass; Postemergence, scale 0 to 100): 100; Plant response rating, Bermudagrass (bermudagrass; [14]): 80; Plant response rating, Bermudagrass (bermudagrass; [15]): 50; Sedge, Umbrella plant response rating ([1]; 62 g ai/ha, scale 0 to 100): 30; Morningglory plant response rating (morningglory [2]; [12]): 100; Plant response rating, Morningglory (morningglory [2]; [6]): 100; Plant response rating, Morningglory (morningglory [2]; [14]): 100; Plant response rating, Morningglory (morningglory [2]; [15]): 80; Morningglory plant response rating (0 to 100 scale) (morningglory [3]; [25]): 0; Plant response rating, Morningglory (morningglory [3]; [26]): 30; Morningglory plant response rating (morningglory [3]; 500 g ai/ha, scale 0 to 100, 0 is no effect, 100 is complete control): 100; Barnyardgrass plant response rating (barnyardgrass): 50; Rice plant response rating (0 to 100 scale) (rice; [25]): 0; Plant response rating, Rice (rice; [26]): 20; Crabgrass, Large plant response rating (large crabgrass; [23]): 85 |
| CCn1nc(C(C)(C)C)cc1C(=O)Nc1cccc(S(=O)(=O)C(F)(F)F)c1 [Compound 134] | 80 | 95 | 95 |  | 100 | 55 | 75 | 85 | 85 | 0 | 20 | 40 |  |  |  |  | 60 |  |  |  | Plant response rating (0 = no effect, 100 = complete control), Morningglory (morningglory [2]; 62 g ai/ha, preemergence): 0; Morningglory plant response rating (morningglory [2]; [13]): 75; Plant response rating, Morningglory (morningglory [3]; [16]): 20; Plant response rating, Morningglory (morningglory [3]; [19]): 10; Velvetleaf plant response rating (velvetleaf; [27]): 20; Plant response rating, Velvetleaf (velvetleaf; [28]): 20; Velvetleaf plant response rating (velvetleaf; [29]): 40; Velvetleaf plant response rating (velvetleaf; [30]): 15; Plant response rating, Rice (rice; [16]): 50; Crabgrass, Large plant response rating (large crabgrass; [27]): 20; Plant response rating, Crabgrass, Large (large crabgrass; [28]): 35; Crabgrass, Large plant response rating (large crabgrass; [29]): 95; Crabgrass, Large plant response rating (large crabgrass; [30]): 35 |
